According to ChEMBL document CHEMBL3217663, “Evaluation of FR901464 analogues in vitro and in vivo” (Medchemcomm, 2011):
Values belong to the compound of their own block, whether it stands above or below them. The source made the active and inactive calls. The calls are words filed in the database; no cut-off is given here.

How the values were obtained:
Mus musculus [1] = assay: Toxicity in mouse assessed as death at 0.03 to 3 mg/kg, iv once every 4 days for 3 injections; format: organism-based; parameters: dose 0.03-3 mg/kg, route intravenous; settings: in vivo, 96 h
Mus musculus [2] = assay: Toxicity in mouse assessed as body weight loss at 0.5 mg/kg, iv led to the euthanization of mouse on day 9; format: organism-based; parameters: dose 0.5 mg/kg, route intravenous; settings: in vivo
[3] = Half life in mouse serum; format: ADME
PC-3 = assay: Antitumor activity against human PC3 cells xenografted in NCr-nu/nu mouse assessed as tumor weight reduction measured on day 22 at 1 mg/kg, iv once daily for 5 injections; format: functional; settings: PC-3, 528 h
[4] = Plasma concentration in mouse at 6 mg/kg, iv after 30 mins; format: ADME, organism-based; parameters: dose 6 mg/kg, route intravenous
HCT-116 [5] = assay: Antitumor activity against human HCT116 cells xenografted in NCr-nu/nu mouse assessed as tumor weight reduction at 1.5 to 3 mg/kg, iv once every 4 days for 3 injections after 16 days of tumor cell transplantation; format: functional, organism-based
[6] = Toxicity in mouse assessed as tolerated dose compound treated once daily for 5 consecutive days; format: organism-based; settings: in vivo
HCT-116 [7] = assay: Antitumor activity against human HCT116 cells xenografted in NCr-nu/nu mouse assessed as tumor inhibition rate measured on day 41 at 6 mg/kg, iv once every 4 days for 3 injections after 16 days of tumor cell transplantation; format: functional
Mus musculus [8] = assay: Toxicity in mouse assessed as death at >= 1.5 mg/kg, iv compound treated once daily for 5 consecutive days; format: organism-based; parameters: dose 1.5 mg/kg, route intravenous; settings: in vivo
Mus musculus [9] = assay: Toxicity in mouse assessed as body weight loss at 1 mg/kg, iv once every 4 days for 3 injections; format: organism-based; parameters: dose 1 mg/kg, route intravenous; settings: in vivo, 96 h
Mus musculus [10] = assay: Toxicity in mouse assessed as death at 0.5 mg/kg, iv led to the euthanization of mouse on day 9; format: organism-based, NCr; parameters: dose 0.5 mg/kg, route intravenous; settings: in vivo
Mus musculus [11] = assay: Toxicity in mouse assessed as body weight loss at 3 mg/kg, iv once every 4 days for 3 injections; format: organism-based; parameters: dose 3 mg/kg, route intravenous; settings: in vivo, 96 h
[12] = Therapeutic index, ratio of GI50 for human HCT116 cells to GI50 for NHDF; format: cell-based, HCT-116; settings: HCT116 cells and NHDF cells, read-out: RatioGI50
[13] = Therapeutic index, ratio of GI50 for human HCT116 cells to GI50 for HMEC; format: cell-based, HCT-116; settings: HCT116 cells and HMEC cells, read-out: RatioGI50
[14] = Therapeutic index, ratio of GI50 for human HCT116 cells to GI50 for NHLF; format: cell-based, HCT-116; settings: HCT116 cells and NHLF cells, read-out: RatioGI50
[15] = Antiproliferative activity against NHLF assessed as growth inhibition after 24 to 72 hrs by MTS assay; settings: human, NHLF cells
[16] = Antiproliferative activity against HUVEC assessed as growth inhibition after 24 to 72 hrs by MTS assay; format: cell-based; settings: human, HUVEC cells
HCT-116 [17] = assay: Antitumor activity against human HCT116 cells xenografted in NCr-nu/nu mouse assessed as tumor weight reduction at 6 mg/kg, iv once every 4 days for 3 injections after 16 days of tumor cell transplantation; format: functional
MDA-MB-231 = assay: Antiproliferative activity against human MDA-MB-231 cells assessed as growth inhibition after 24 to 72 hrs by MTS assay; format: functional
[18] = Therapeutic index, ratio of GI50 for human HCT116 cells to GI50 for HUVEC; format: cell-based, HCT-116; settings: HCT116 cells and HUVEC cells, read-out: RatioGI50
[19] = Antiproliferative activity against HMEC assessed as growth inhibition after 24 to 72 hrs by MTS assay; format: cell-based; settings: human, HMEC cells
MCF7 = assay: Antiproliferative activity against human MCF7 cells assessed as growth inhibition after 24 to 72 hrs by MTS assay; format: functional
[20] = Antiproliferative activity against NHDF assessed as growth inhibition after 24 to 72 hrs by MTS assay; format: cell-based; settings: human, NHDF cells
Mus musculus [21] = assay: Toxicity in mouse assessed as body weight loss at 0.03 to 3 mg/kg, iv once every 4 days for 3 injections; format: organism-based; parameters: dose 0.03-3 mg/kg, route intravenous; settings: in vivo, 96 h
HCT-116 [22] = assay: Antiproliferative activity against human HCT116 cells assessed as growth inhibition after 24 to 72 hrs by MTS assay; format: functional
HCT-116 [23] = assay: Antitumor activity against human HCT116 cells xenografted in NCr-nu/nu mouse assessed as tumor inhibition rate measured on day 41and 44 at 15 mg/kg, iv once daily for 5 injections after 16 days of tumor cell transplantation; format: functional; settings: HCT-116, 384 h
P388 = assay: Antiproliferative activity against mouse P388 cells assessed as growth inhibition after 24 to 72 hrs by MTS assay; format: functional
A549 = assay: Antiproliferative activity against human A549 cells assessed as growth inhibition after 24 to 72 hrs by MTS assay; format: functional
[24] = Plasma concentration in mouse at 6 mg/kg, iv upto 4 hrs; format: ADME, organism-based; parameters: dose 6 mg/kg, route intravenous

Compound: CC(/C=C/[C@H]1OC(C)(C)C[C@@]2(CO2)[C@@H]1O)=C\C[C@@H]1O[C@H](C)[C@H](NC(=O)/C=C\[C@H](C)OC(=O)N2CCOCC2)C[C@@H]1C
Activity (Mus musculus [1]): Non-toxic | Activity (Mus musculus [2]): 6% | half-life [3]: 13 h | inhibition in vivo at 1 mg/kg (PC-3): 26% | concentration at 0.5 h [4]: < 10 ng/mL | Activity (HCT-116 [5]): inactive | MTD at 5 days [6]: 0.5 mg/kg | inhibition in vivo at 6 mg/kg (HCT-116 [7]): 41% | Activity (Mus musculus [8]): Toxic | Activity (Mus musculus [9]): 10% | Activity (Mus musculus [10]): Toxic | Activity (Mus musculus [11]): 11%

Compound: CC(=O)O[C@@H](C)/C=C\C(=O)N[C@@H]1C[C@H](C)[C@H](C/C=C(C)/C=C/[C@H]2OC(C)(C)C[C@@]3(CO3)[C@@H]2O)O[C@@H]1C
selectivity ratio [12]: 6 | selectivity ratio [13]: 1.6 | selectivity ratio [14]: 2.7 | Activity (Mus musculus [1]): Non-toxic | GI50 [15]: 0.91 nM | GI50 [16]: 0.06 nM | half-life [3]: 2 h | inhibition in vivo at 6 mg/kg (HCT-116 [17]): 24% | GI50 (MDA-MB-231): 0.07 nM | selectivity ratio [18]: 1 | Activity (HCT-116 [5]): inactive | GI50 [19]: 0.11 nM | GI50 (MCF7): 0.02 nM | GI50 [20]: 0.44 nM | Activity (Mus musculus [21]): Non-toxic | GI50 (HCT-116 [22]): 0.07 nM

GI50 (HCT-116 [22]): 70 nM
Compound: COc1cccc2c1C(=O)c1c(O)c3c(c(O)c1C2=O)C[C@@](O)(C(=O)CO)C[C@@H]3O[C@H]1C[C@H](N)[C@H](O)[C@H](C)O1 [DOXORUBICIN]
GI50 [15]: 223 nM | GI50 [16]: 109 nM | GI50 [19]: 276 nM | GI50 [20]: 462 nM

Compound: CC(=O)O[C@H]1C(=O)[C@@]2(C)[C@H]([C@H](OC(=O)c3ccccc3)[C@]3(O)C[C@H](OC(=O)[C@H](O)[C@@H](NC(=O)c4ccccc4)c4ccccc4)C(C)=C1C3(C)C)[C@]1(OC(C)=O)CO[C@@H]1C[C@@H]2O [PACLITAXEL]
inhibition in vivo at 15 mg/kg (HCT-116 [23]): 81%

Compound: CC(=O)O[C@@H](C)/C=C\C(=O)N[C@@H]1C[C@H](C)[C@H](C/C=C(C)/C=C/[C@H]2O[C@](C)(O)C[C@@]3(CO3)[C@@H]2O)O[C@@H]1C
GI50 (P388): 1 nM | GI50 (A549): 1 nM | GI50 (MCF7): 1 nM | GI50 (HCT-116 [22]): 1 nM

GI50 (MDA-MB-231): 1.1 nM | GI50 (MCF7): 0.4 nM | concentration at 4 h [24]: < 10 ng/mL | GI50 (HCT-116 [22]): 1.4 nM
Compound: CO[C@@H]1[C@@H](/C=C/C(C)=C/C[C@@H]2O[C@H](C)[C@H](NC(=O)/C=C\[C@H](C)OC(=O)N3CCOCC3)C[C@@H]2C)OC(C)(C)C[C@@]12CO2
selectivity ratio [12]: 15 | selectivity ratio [13]: 3.5 | selectivity ratio [14]: 4.6 | GI50 [15]: 12 nM | GI50 [16]: 4 nM | selectivity ratio [18]: 1.5 | GI50 [19]: 9 nM | GI50 [20]: 39 nM
